# Experimental data: US20080182234A1, “Methods and Compositions for Modulating Adenosine Triphosphate (ATP) in Cells and Preventing Cell Injury or Death via Post-translational Modifications to ATP Synthase” (priority 2001, published 2008)
# Entries after “also recorded” stand apart in the source; their conditions may differ.
# Legend:
# [1] = tested on: isolated myocytes obtained from rabbit hearts; conditions: 100 μM adenosine for 60 minutes; cited from earlier work
# [2] = tested on: ATP synthase β chain precursor; assay: Two-dimensional gel electrophoresis (silver stain, western blot) of cytoplasmic extract of adenosine-treated isolated myocytes; format: cell-based, rabbit
# Experimental: Ventricular myocytes from New Zealand White rabbits (weighing 1 to 2 kg) were isolated by collagenase dissociation, as described previously by Liu et al. (Circ. Res. 1996 78:443-454). Hearts were excised, then perfused with collagenase (1.0 mg/mL, Worthington type II) for 14 minutes at a maintained perfusion pressure of 75 mm Hg on a Langendorff apparatus, yielding >50% Ca^2+-tolerant ventricular myocytes. Cell isolation was followed directly by pharmacological preconditioning, which was carried out by treatment with 100 μmol/L adenosine (Sigma) for 60 minutes in a 37° C. water bath, as described previously by Liu et al. supra. Untreated cells were prepared concurrently as drug-free controls. Equivalent 25 μL aliquots of cells (containing ˜30 mg/mL of protein as determined by Lowry assay (Lowry, O. H. J. Biol. Chem. 1951 193:265-275) were frozen and stored at −80° C. until analysis. All steps in the “1N Sequence” protein extraction protocol to produce cytoplasmic and myofilament enriched extracts were carried out at 4° C., and all centrifugations were conducted at 16000×g for 2 minutes at 4° C. Myocyte proteins were first extracted by two rounds of homogenization in 100 μL of HEPES extraction buffer, consisting of (in mmol/L) HEPES 25 (pH 7.4), NaF 50, Na3VO4 0.25, phenylmethylsulfonyl fluoride 0.25, EDTA 0.5, and (in μmol/L) leupeptin 1.25, pepstatin A 1.25. […]
smiles,measurement,setting,value
Nc1ncnc2c1ncn2[C@@H]1O[C@H](CO)[C@@H](O)[C@H]1O [adenosine],protection against cell death,[1],sufficient to protect against cell death
same,"additional, more acidic spots at the molecular weight of intact ATP synthase β chain precursor on 2-D gel (silver stain or western blot)","[2]; isolated rabbit cardiomyocytes, 100 μM adenosine for 60 minutes, cytoplasmic extract, n=4, control had only a single protein spot",Two additional spots
same,post-translational modifications of ATP synthase β-chain precursor,[2]; isolated rabbit myocytes treated with adenosine for 60 minutes (n=4) versus untreated myocytes,An increase in the post-translational modifications; also recorded: Post-translational modifications to the ATP synthase β-chain precursor were detected
